# Patent publication US20160296499A1, “Spiroindoline Antiparasitic Derivatives” (ZOETIS SERVICES LLC, priority 2013, published 2016)
# Read-outs that look alike come from different tables or passages of the source.
# Key:
# [1] = target: T1, bovine vesicular acetylcholine transporter (VAChT) (Bos taurus, UniProt E1BK36); experiment: Radioligand Binding Assay; settings: Bovine binding Ki, CHO-K1 membranes with recombinant bovine VAChT, [3H]Compound X6 0.3 nM
# T1 sequence (E1BK36 1-524): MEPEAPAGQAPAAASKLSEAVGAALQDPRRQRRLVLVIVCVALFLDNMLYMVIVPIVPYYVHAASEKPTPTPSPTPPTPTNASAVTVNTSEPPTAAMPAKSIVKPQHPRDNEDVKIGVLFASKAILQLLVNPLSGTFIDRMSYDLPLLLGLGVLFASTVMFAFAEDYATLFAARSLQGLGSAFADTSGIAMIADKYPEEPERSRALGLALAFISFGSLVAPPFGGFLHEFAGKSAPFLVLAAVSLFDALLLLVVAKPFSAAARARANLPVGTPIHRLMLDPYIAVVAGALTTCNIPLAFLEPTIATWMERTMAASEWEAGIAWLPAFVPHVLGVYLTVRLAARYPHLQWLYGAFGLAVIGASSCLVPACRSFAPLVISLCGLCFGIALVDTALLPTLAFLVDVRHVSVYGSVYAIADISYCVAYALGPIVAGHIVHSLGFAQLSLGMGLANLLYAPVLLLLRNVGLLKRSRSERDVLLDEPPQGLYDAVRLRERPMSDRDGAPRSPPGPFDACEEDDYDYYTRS
# Experimental: To measure binding affinity, CHO-K1 cells recombinantly expressing the bovine VAChT was generated as a stable cell line and subsequently used to produce membrane preparations.
# Radioligand binding assays were conducted in disposable polypropylene 96-well plates. VAChT competition assays were initiated by the addition of bovine recombinant membrane homogenate (50 μg/well) in assay buffer (50 mM Tris-HCl, 120 mM NaCl, 5 mM KCl, 1 mM MgCl, and 2 mM CaCl, pH 7.4) containing [^3H]Compound X6 (0.3 nM) with or without competing ligand. The assay was allowed to equilibrate for 120 minutes at room temperature, before being filtered onto GF/C unifilter plates pre-coated in 0.3% polyethylenimine (Perkin Elmer Life and Analytical Sciences, Boston, Mass.) with a Filtermate 96 harvester (PerkinElmer Life and Analytical Sciences). Filters were washed in ice-cold 50 mM Tris-HCl, pH 7.4 buffer and then counted for radioactivity in a TopCount microplate scintillation counter after addition of 50 μL Microscint 20 (PerkinElmer). Non-specific binding was measured in the presence of 10 μM Compound X6. Apparent dissociation constants (Ki values) from the competition experiments were calculated using an iterative nonlinear regression curve-fitting program (GraphPAD Prism 6.0 Software, San Diego, Calif.) and are reported in Table 2.
# Haemonchus contortus L3 = experiment: Haemonchus contortus, Larvae Stage 3 (HcL3) In Vitro Assay; settings: Haemonchus contortus
# [2] = system: Dirofilaria immitis microfilariae; experiment: Dirofilaria immitis, Microfilariae (DiMF) In Vitro Assay; settings: Dirofilaria immitis
# [3] = 96 h, read-out: HcL3 MEC, Minimal Effective Concentration whereby worm motility is inhibited by approximately 70%, 37° C., tested 0.001-100 μM
# [4] = 72 h, read-out: Di MF, MEC, decrease in microfilariae motility by visual assessment, curve starting at 100 μM
# [5] = 96 hours, 37° C., read-out: HcL3 MEC
smiles,measurement,setting,value
"CN(C)c1ccc2c(c1)C1(CCN(C/C=C/c3ccc(Cl)c(Cl)c3)CC1)CN2C(=O)NCc1ccnc(Cl)c1 [Example 137, (E)-N-((2-chloropyridin-4-yl)methyl)-1′-(3-(3,4-dichlorophenyl)allyl)-5-(dimethylamino)spiro[indoline-3,4′-piperidine]-1-carboxamide]",Ki,[1],516 nM
same,minimal effective concentration,Haemonchus contortus L3; [3],3.3 µM
same,minimal effective concentration,[2]; [4],10 µM
"Cn1ncc2c3c(ccc21)N(C(=O)NCc1ccnc(Cl)c1)CC31CCN(C/C=C/c2ccc(C(F)(F)F)cn2)CC1 [Example 53, (E)-N-((2-chloropyridin-4-yl)methyl)-3′-methyl-1-(3-(5-(trifluoromethyl)pyridin-2-yl)allyl)-3′H-spiro[piperidine-4,8′-pyrrolo[3,2-e]indazole]-6′(7′H)-carboxamide]",Ki,[1],1930 nM
same,minimal effective concentration,Haemonchus contortus L3; [3],> 100 µM
same,minimal effective concentration,[2]; [4],33 µM
"O=C(NCc1cscn1)N1CC2(CCN(C/C=C/c3ccc(Cl)c(Cl)c3)CC2)c2c1ccc1scnc21 [Example 24, (E)-1-(3-(3,4-dichlorophenyl)allyl)-N-(thiazol-4-ylmethyl)spiro[piperidine-4,8′-thiazolo[4,5-e]indole]-6′(7′H)-carboxamide]",Ki,[1],1100 nM
same,minimal effective concentration,Haemonchus contortus L3; [3],100 µM
same,minimal effective concentration,[2]; [4],33 µM
"O=C(NCc1ccnc(F)c1)N1CC2(CCN(C/C=C/c3ccc(Cl)cc3)CC2)c2cc(F)c(Cl)cc21 [Example 69, (E)-6-chloro-1′-(3-(4-chlorophenyl)allyl)-5-fluoro-N-((2-fluoropyridin-4-yl)methyl)spiro[indoline-3,4′-piperidine]-1-carboxamide]",Ki,[1],55.2 nM
same,minimal effective concentration,Haemonchus contortus L3; [3],2.5 µM
same,minimal effective concentration,[2]; [4],6.5 µM
"O=C(NCc1ccnc(Cl)c1)N1CC2(CCN(C/C=C/c3ccc(Cl)c(Cl)c3)CC2)c2cc3c(cc21)OCCO3 [Example 9, (E)-N-((2-chloropyridin-4-yl)methyl)-1-(3-(3,4-dichlorophenyl)allyl)-2′,3′-dihydrospiro[piperidine-4,8′-[1,4]dioxino[2,3-f]indole]-6′(7′H)-carboxamide]",Ki,[1],62.8 nM
same,minimal effective concentration,Haemonchus contortus L3; [3],33 µM
same,minimal effective concentration,[2]; [4],10 µM
"COc1ccc(-c2ccc3c(c2)C2(CCN(C/C=C/c4ccc(Cl)cc4)CC2)CN3C(=O)NCc2ccnc(Cl)c2)cn1 [Example 119, 1′-[(E)-3-(4-chlorophenyl)allyl]-N-[(2-chloro-4-pyridyl)methyl]-5-(6-methoxy-3-pyridyl)spiro[indoline-3,4′-piperidine]-1-carboxamide]",Ki,[1],177 nM
same,minimal effective concentration,Haemonchus contortus L3; [3],100 µM
same,minimal effective concentration,[2]; [4],10 µM
"O=C(NCc1ccnc(F)c1)N1CC2(CCN(C/C=C/c3ccc(Cl)cc3)CC2)c2c(OC(F)(F)F)ccc(Cl)c21 [Example 148, (E)-7-chloro-1′-(3-(4-chlorophenyl)allyl)-N-((2-fluoropyridin-4-yl)methyl)-4-(trifluoromethoxy)spiro[indoline-3,4′-piperidine]-1-carboxamide]",Ki,[1],2480 nM
same,minimal effective concentration,Haemonchus contortus L3; [3],100 µM
same,minimal effective concentration,[2]; [4],3.3 µM
"Cn1cc(CNC(=O)N2CC3(CCN(C/C=C/c4ccc(Cl)c(Cl)c4)CC3)c3c2ccc2scnc32)cn1 [Example 26, (E)-1-(3-(3,4-dichlorophenyl)allyl)-N-((1-methyl-1H-pyrazol-4-yl)methyl)spiro[piperidine-4,8′-thiazolo[4,5-e]indole]-6′(7′H)-carboxamide]",Ki,[1],27.8 nM
same,minimal effective concentration,Haemonchus contortus L3; [3],10 µM
same,minimal effective concentration,[2]; [4],10 µM
"O=C(NCc1ccnc(Cl)c1)N1CC2(CCN(C/C=C/c3ccc(F)cc3)CC2)c2c(OC(F)(F)F)ccc(Cl)c21 [Example 58, (E)-7-chloro-N-((2-chloropyridin-4-yl)methyl)-1′-(3-(4-fluorophenyl)allyl)-4-(trifluoromethoxy)spiro[indoline-3,4′-piperidine]-1-carboxamide]",Ki,[1],1360 nM
same,minimal effective concentration,Haemonchus contortus L3; [3],100 µM
same,minimal effective concentration,[2]; [4],10 µM
"O=C(NCc1ccnc(Cl)c1)N1CC2(CCN(C/C=C/c3ccc(F)cc3)CC2)c2cc3c(cc21)COC3 [Example 4, (E)-N-((2-chloropyridin-4-yl)methyl)-1′-(3-(4-fluorophenyl)allyl)-5,7-dihydrospiro[furo[3,4-f]indole-3,4′-piperidine]-1(2H)-carboxamide]",Ki,[1],78.7 nM
same,minimal effective concentration,Haemonchus contortus L3; [5],10 µM
same,minimal effective concentration,"[2]; 72 hours, read-out: Di MF",10 µM
"Cc1c(F)ccc2c1C1(CCN(C/C=C/c3ccc(Cl)cc3)CC1)CN2C(=O)NCc1ccnc(Cl)c1 [Example 155, (E)-1′-(3-(4-chlorophenyl)allyl)-N-((2-chloropyridin-4-yl)methyl)-5-fluoro-4-methylspiro[indoline-3,4′-piperidine]-1-carboxamide]",Ki,[1],74.8 nM
same,minimal effective concentration,Haemonchus contortus L3; [3],7.3 µM
same,minimal effective concentration,[2]; [4],3.3 µM
"O=C(NCc1ccnc(Cl)c1)N1CC2(CCN(C/C=C/c3ccc(C(F)(F)F)cc3)CC2)c2cc(OC(F)(F)F)ccc21 [Example 181, (E)-N-((2-chloropyridin-4-yl)methyl)-5-(trifluoromethoxy)-1′-(3-(4-(trifluoromethyl)phenyl)allyl)spiro[indoline-3,4′-piperidine]-1-carboxamide]",Ki,[1],816 nM
same,minimal effective concentration,Haemonchus contortus L3; [3],100 µM
same,minimal effective concentration,[2]; [4],10 µM
"O=C(NCc1ccnc(F)c1)N1CC2(CCN(C/C=C/c3ccc(Cl)cc3)CC2)c2cc3c(cc21)COC3 [Example 2, (E)-1′-(3-(4-chlorophenyl)allyl)-N-((2-fluoropyridin-4-yl)methyl)-5,7-dihydrospiro[furo[3,4-f]indole-3,4′-piperidine]-1(2H)-carboxamide]",Ki,[1],321 nM
same,minimal effective concentration,Haemonchus contortus L3; [3],18.2 µM
same,minimal effective concentration,[2]; [4],10 µM
"N#Cc1ccc(-c2ccc3c(c2)C2(CCN(C/C=C/c4ccc(Cl)cc4)CC2)CN3C(=O)NCc2ccnc(F)c2)cn1 [Example 109, 1′-[(E)-3-(4-chlorophenyl)allyl]-5-(6-cyano-3-pyridyl)-N-[(2-fluoro-4-pyridyl)methyl]spiro[indoline-3,4′-piperidine]-1-carboxamide]",Ki,[1],50.8 nM
same,minimal effective concentration,Haemonchus contortus L3; [3],3.3 µM
same,minimal effective concentration,[2]; [4],1.8 µM
"N#Cc1cccc(-c2ccc3c(c2)C2(CCN(C/C=C/c4ccc(Cl)c(Cl)c4)CC2)CN3C(=O)NCc2ccnc(F)c2)c1 [Example 108, 5-(3-cyanophenyl)-1′-[(E)-3-(3,4-dichlorophenyl)allyl]-N-[(2-fluoro-4-pyridyl)methyl]spiro[indoline-3,4′-piperidine]-1-carboxamide]",Ki,[1],32600 nM
same,minimal effective concentration,Haemonchus contortus L3; [3],100 µM
same,minimal effective concentration,[2]; [4],3.3 µM
"O=C(NCc1ccnc(F)c1)N1CC2(CCN(C/C=C/c3ccc(Cl)c(Cl)c3)CC2)c2cc(Br)ccc21 [Example 104, 5-bromo-1′-[(E)-3-(3,4-dichlorophenyl)allyl]-N-[(2-fluoro-4-pyridyl)methyl]spiro[indoline-3,4′-piperidine]-1-carboxamide]",Ki,[1],43.7 nM
same,minimal effective concentration,Haemonchus contortus L3; [5],3.3 µM
same,minimal effective concentration,"[2]; 72 hours, read-out: Di MF",10 µM
"O=C(NCc1ccnc(Cl)c1)N1CC2(CCN(C/C=C/c3ccc(F)cc3)CC2)c2c1cccc2C(F)(F)F [Example 153, (E)-N-((2-chloropyridin-4-yl)methyl)-1′-(3-(4-fluorophenyl)allyl)-4-(trifluoromethyl)spiro[indoline-3,4′-piperidine]-1-carboxamide]",Ki,[1],218 nM
same,minimal effective concentration,Haemonchus contortus L3; [3],5.7 µM
same,minimal effective concentration,[2]; [4],7.6 µM
"O=C(NCc1cnc(Cl)s1)N1CC2(CCN(C/C=C/c3ccc(Cl)cc3)CC2)c2cc(C(F)(F)F)ccc21 [Example 85, (E)-1′-(3-(4-chlorophenyl)allyl)-N-((2-chlorothiazol-5-yl)methyl)-5-(trifluoromethyl)spiro[indoline-3,4′-piperidine]-1-carboxamide]",Ki,[1],226 nM
same,minimal effective concentration,Haemonchus contortus L3; [5],18.2 µM
same,minimal effective concentration,"[2]; 72 hours, read-out: Di MF",10 µM
"N#Cc1ccc(/C=C/CN2CCC3(CC2)CN(C(=O)NCc2ccnc(Cl)c2)c2cc4c(cc23)COC4)cc1 [Example 5, (E)-N-((2-chloropyridin-4-yl)methyl)-1′-(3-(4-cyanophenyl)allyl)-5,7-dihydrospiro[furo[3,4-f]indole-3,4′-piperidine]-1(2H)-carboxamide]",Ki,[1],70.1 nM
same,minimal effective concentration,Haemonchus contortus L3; [3],33 µM
same,minimal effective concentration,[2]; [4],10 µM
"N#Cc1cncc(-c2ccc3c(c2)C2(CCN(C/C=C/c4ccc(Cl)cc4)CC2)CN3C(=O)NCc2ccnc(F)c2)c1 [Example 115, 1′-[(E)-3-(4-chlorophenyl)allyl]-5-(5-cyano-3-pyridyl)-N-[(2-fluoro-4-pyridyl)methyl]spiro[indoline-3,4′-piperidine]-1-carboxamide]",Ki,[1],3930 nM
same,minimal effective concentration,Haemonchus contortus L3; [3],100 µM
same,minimal effective concentration,[2]; [4],7.6 µM
"O=C(NCc1cocn1)N1CC2(CCN(C/C=C/c3ccc(Cl)c(Cl)c3)CC2)c2c1ccc1scnc21 [Example 29, (E)-1-(3-(3,4-dichlorophenyl)allyl)-N-(oxazol-4-ylmethyl)spiro[piperidine-4,8′-thiazolo[4,5-e]indole]-6′(7′H)-carboxamide]",Ki,[1],367 nM
same,minimal effective concentration,Haemonchus contortus L3; [3],100 µM
same,minimal effective concentration,[2]; [4],10 µM
